In assay [1] the target is T1, 5-hydroxytryptamine receptor 2A (Homo sapiens, UniProt P28223). The assay is described as follows: Activation of human 5-HT2A receptor assessed as maximal activation relative to control. Particulars: filed as activator.
For assay [2], the target named is T1, 5-hydroxytryptamine receptor 2A. The assay is described as follows: Activation of human 5-HT2A receptor.
For assay [3] the target is unchanged. The experiment in a line: Displacement of [125I]DOI from 5-HT2A receptor (unknown origin) assessed as inhibition constant. Background: Displacement assays read how much labelled ligand stays bound in the presence of the test substance.

SMILES strings stand for the structures.

T1 sequence (P28223 whole entry): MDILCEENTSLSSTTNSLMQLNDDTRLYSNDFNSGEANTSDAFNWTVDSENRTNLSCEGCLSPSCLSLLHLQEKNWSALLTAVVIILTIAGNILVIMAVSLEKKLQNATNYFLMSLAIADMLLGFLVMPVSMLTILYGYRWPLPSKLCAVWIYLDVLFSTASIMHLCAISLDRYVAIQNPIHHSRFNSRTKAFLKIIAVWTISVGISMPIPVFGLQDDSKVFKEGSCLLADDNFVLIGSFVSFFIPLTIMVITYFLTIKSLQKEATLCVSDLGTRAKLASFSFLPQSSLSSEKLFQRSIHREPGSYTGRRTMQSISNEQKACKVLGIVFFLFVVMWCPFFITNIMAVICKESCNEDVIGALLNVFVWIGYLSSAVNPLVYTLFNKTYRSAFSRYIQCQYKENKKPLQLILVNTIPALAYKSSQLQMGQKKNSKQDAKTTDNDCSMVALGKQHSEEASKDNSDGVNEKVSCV

Broadly, the EC50 is the concentration needed to bring the measured effect to its halfway point. Lower therefore signals a more potent agent. What is called Ki is the equilibrium dissociation constant of an inhibitor or competing ligand from its target. On to `C#CCN(C)C(=O)[C@@H]1C=C2c3cccc4[nH]cc(c34)C[C@H]2N(C)C1`, for which the max activation in assay [1] came to 70%. This compound also had an EC50 in assay [2] of 980 pM. In addition, in assay [3], the Ki is 540 pM.

As to `CCN(CC(F)F)C(=O)[C@@H]1C=C2c3cccc4[nH]cc(c34)C[C@H]2N(C)C1`, the max activation in assay [1] is 77%. It took 760 pM to reach a half-maximal effect in assay [2] (EC50). For the same compound, in assay [3], the Ki came out at 210 pM.

Turning to `C#CCN(CC)C(=O)[C@@H]1C=C2c3cccc4[nH]cc(c34)C[C@H]2N(C)C1`, in assay [1], the max activation was found to be 68%. Moreover, the EC50 in assay [2] came out at 830 pM. Moreover, the Ki in assay [3] was 360 pM.

Consider `CCN(CC#N)C(=O)[C@@H]1C=C2c3cccc4[nH]cc(c34)C[C@H]2N(C)C1`, for which the max activation in assay [1] is 68%. In assay [2], this compound registered an EC50 of 880 pM. In addition, in assay [3], the Ki was determined as 190 pM.

For the compound `CCN(CCF)C(=O)[C@@H]1C=C2c3cccc4[nH]cc(c34)C[C@H]2N(C)C1`, the max activation in assay [1] was 69%. This compound also displayed an EC50 in assay [2] of 430 pM. The Ki in assay [3] was found to be 340 pM.

Regarding `CN(CC(F)(F)F)C(=O)[C@@H]1C=C2c3cccc4[nH]cc(c34)C[C@H]2N(C)C1`, in assay [1], the max activation was determined as 72%. In addition, in assay [2], the EC50 came out at 9100 pM. The Ki in assay [3] was 260 pM.

In the case of `CN1C[C@H](C(=O)N(CCF)CC(F)F)C=C2c3cccc4[nH]cc(c34)C[C@H]21`, in assay [1], the max activation amounted to 78%. This compound also returned a half-maximal effective concentration (EC50) in assay [2] of 250 pM. In addition, in assay [3], the Ki turned out to be 430 pM.

For the compound `CCN(CC(F)(F)F)C(=O)[C@@H]1C=C2c3cccc4[nH]cc(c34)C[C@H]2N(C)C1`, in assay [1], the max activation is 82%. In assay [2], this compound yielded an EC50 of 3200 pM. Besides, the Ki in assay [3] came out at 450 pM.

Regarding `CN1C[C@H](C(=O)N(CC(F)F)CC(F)F)C=C2c3cccc4[nH]cc(c34)C[C@H]21`, in assay [1], the max activation is 82%. Moreover, the response in assay [2] was half-maximal at 900 pM (EC50). The inhibitory constant (Ki) in assay [3] came out at 330 pM.

The values above are taken from ChEMBL document CHEMBL5614448, “Current Trends in Psychedelic Science: Integrating Modified Lysergic Acid Derivatives and Psilocybin in Modern Medicine” (ACS Med Chem Lett, 2024).
